The source of these data is US20240043435A1, “TYK-2 INHIBITOR” (BEIGENE, LTD., priority 2020, published 2024).

One test relates to pSTAT5/GM-CSF. Description: pSTAT5/GM-CSF cellular assay (JAK2 selectivity). Format: cell-based. The note with it: for Selectivity fold (TYK2/JAK2): pSTAT5/GM-CSF IC50 over pSTAT4/IL-12 IC50.
Test [1] deals with T1, TYK2-JH2 (aa 575-869, in-house) protein (Homo sapiens, UniProt P29597).
T1 construct: TYK2-JH2 (aa 575-869, in-house) protein; made in house
Description: TYK2-JH2 biochemical assay (HTRF probe displacement). Format: binding. The note with it: Biochemical assay; read-out: TYK2-JH2 IC50. The essentials:
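Recombinant TYK2-JH2 (0.2 nM) was pre-incubated 0.5 h at room temperature with compounds (10 doses, 5-fold dilution; 500× DMSO stocks from 500 uM) in 20 mM HEPES pH 7.5, 10 mM MgCl2, 0.005% BSA, 2 mM DTT, 0.015% Brij-35. Probe displacement was read by HTRF (ex337, em620/665 nm); IC50 from four-parameter logistic fit.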

Test [2] deals with JAK2, TYK2/p-STAT4 (Tyr693) activated by IL-12 in NK-92 cell line. Description: IL-12-JAK2, TYK2/p-STAT4 (Tyr693) inhibition IC50 cellular assay. Format: cell-based. As to conditions: for Selectivity fold (TYK2/JAK2): Cellular assay, pSTAT5/GM-CSF IC50 vs pSTAT4/IL-12 IC50; for IC50: NK92, Cellular assay, read-out: pSTAT4/IL-12 IC50. The procedure, abridged:
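NK-92 cells were starved overnight without IL-2 and preincubated 1 h at 37° C with compound (8 doses, 10000–0.61 nM, 4-fold, 0.2% DMSO). They were then stimulated with IL-12 (40 ng/ml final) for 30 min. Lysate p-STAT4 (Tyr693) was read by AlphaLISA SureFire; IC50 from four-parameter logistic fit.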

T1 sequence (P29597 575-869): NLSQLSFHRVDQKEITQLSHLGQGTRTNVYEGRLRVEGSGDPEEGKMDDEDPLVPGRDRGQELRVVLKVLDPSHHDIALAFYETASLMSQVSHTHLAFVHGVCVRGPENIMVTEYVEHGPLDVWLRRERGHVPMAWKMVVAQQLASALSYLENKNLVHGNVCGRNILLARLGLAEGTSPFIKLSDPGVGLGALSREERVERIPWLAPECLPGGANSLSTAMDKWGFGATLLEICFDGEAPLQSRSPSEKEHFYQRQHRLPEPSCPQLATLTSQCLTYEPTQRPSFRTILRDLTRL

Turning to `CC(=O)Nc1cc(Nc2cc(C3CCOCC3)cc(S(C)(=O)=O)n2)c(-c2ccc(N3C[C@@H](C)O[C@@H](C)C3)cn2)cn1` [Example C21, N-(5-(cis-2,6-dimethylmorpholino)-4′-((6-(methylsulfonyl)-4-(tetrahydro-2H-pyran-4-yl)pyridin-2-yl)amino)-[2,3′-bipyridin]-6′-yl)acetamide], the IC50 with pSTAT5/GM-CSF is above 10000 nM; in test [1], 0.024 nM; in test [2], 0.995 nM. Also, the “Selectivity fold (TYK2/JAK2)” value in test [2] is above 10050 fold.
Regarding `CO[C@H]1C[C@@H](c2cc(Nc3cc(NC(C)=O)ncc3-c3ccc4c(n3)OCC(C)(C)O4)nc(S(C)(=O)=O)c2)C1` [Example Q53, N-(5-(2,2-dimethyl-2,3-dihydro-[1,4]dioxino[2,3-b]pyridin-6-yl)-4-((4-((cis)-3-methoxycyclobutyl)-6-(methylsulfonyl)pyridin-2-yl)amino)pyridin-2-yl)acetamide], the IC50 was above 10000 nM in the test on pSTAT5/GM-CSF, 0.047 nM in test [1] and 0.581 nM in test [2]. Moreover, the “Selectivity fold (TYK2/JAK2)” value in the test on pSTAT5/GM-CSF is listed as above 17211 fold.
Consider `COCCOc1ccc(-c2cnc(NC(C)=O)cc2Nc2cc(OC(C)C)cc(S(C)(=O)=O)n2)nc1` [Example D6, N-(4′-((4-isopropoxy-6-(methylsulfonyl)pyridin-2-yl)amino)-5-(2-methoxyethoxy)-[2,3′-bipyridin]-6′-yl)acetamide], for which the IC50 in the test with pSTAT5/GM-CSF is above 10000 nM; in test [1], 0.025 nM; in test [2], 0.593 nM. Besides, in test [2], the “Selectivity fold (TYK2/JAK2)” value was above 16863 fold.
As to `CC(=O)Nc1cc(Nc2cc(OC3CC3)cc(S(C)(=O)=O)c2)c(-c2ccn(C)n2)cn1` [Example J36, N-(4-((3-cyclopropoxy-5-(methylsulfonyl)phenyl)amino)-5-(1-methyl-1H-pyrazol-3-yl)pyridin-2-yl)acetamide], the IC50 was above 10000 nM in the test on pSTAT5/GM-CSF, 0.043 nM in test [1] and 5.05 nM in test [2]. Also, the “Selectivity fold (TYK2/JAK2)” value with pSTAT5/GM-CSF is above 1980 fold.
The matching figures for `COc1cc(Nc2cc(NC(C)=O)ncc2-c2ccn(C)n2)cc(S(C)(=O)=O)c1` [Example J9, N-(4-((3-methoxy-5-(methylsulfonyl)phenyl)amino)-5-(1-methyl-1H-pyrazol-3-yl)pyridin-2-yl)acetamide]: above 10000 nM, 0.083 nM, 6.54 nM and above 1529 fold.
For `CC(=O)Nc1cc(Nc2cc(OC3CCOC3)cc(S(C)(=O)=O)n2)c(-c2ccn(C)n2)cn1` (stereo not drawn) [Example J46, N-(5-(1-methyl-1H-pyrazol-3-yl)-4-((6-(methylsulfonyl)-4-((tetrahydrofuran-3-yl)oxy)pyridin-2-yl)amino)pyridin-2-yl)acetamide] the same measures were above 10000 nM, 0.033 nM, 2.35 nM and above 4255 fold.
For `CC(=O)Nc1cc(Nc2cc(-c3cscn3)cc(S(C)(=O)=O)n2)c(-c2ccc3c(n2)OCC(C)(C)O3)cn1` [Example Q119, N-(5-(2,2-dimethyl-2,3-dihydro-[1,4]dioxino[2,3-b]pyridin-6-yl)-4-((6-(methylsulfonyl)-4-(thiazol-4-yl)pyridin-2-yl)amino)pyridin-2-yl)acetamide] the same measures were 1150 nM, 0.031 nM, 1.19 nM and 965 fold.
Consider `CC(=O)Nc1cc(Nc2cc(C3CCOCC3)cc(S(C)(=O)=O)n2)c(-c2ccc3c(n2)OCC(C)(C)O3)cn1` [Example Q23, N-(5-(2,2-dimethyl-2,3-dihydro-[1,4]dioxino[2,3-b]pyridin-6-yl)-4-((6-(methylsulfonyl)-4-(tetrahydro-2H-pyran-4-yl)pyridin-2-yl)amino)pyridin-2-yl)acetamide], for which the IC50 in the test with pSTAT5/GM-CSF is 8100 nM; in test [1], 0.028 nM; in test [2], 0.605 nM. Moreover, in the test with pSTAT5/GM-CSF, the “Selectivity fold (TYK2/JAK2)” value was 13390 fold.
Consider `CC(=O)Nc1cc(Nc2cc(OC(C)C)cc(S(C)(=O)=O)n2)c(-c2ccc(C(C)(C)O)cn2)cn1` [Example H2, N-(5-(2-hydroxypropan-2-yl)-4′-((4-isopropoxy-6-(methylsulfonyl)pyridin-2-yl)amino)-[2,3′-bipyridin]-6′-yl)acetamide], for which the IC50 with pSTAT5/GM-CSF was above 10000 nM; in test [1], 0.036 nM; in test [2], 0.939 nM. Moreover, the “Selectivity fold (TYK2/JAK2)” value in test [2] was above 10649 fold.
For the molecule `CC(=O)Nc1cc(Nc2nc(S(C)(=O)=O)cn(C)c2=O)c(-c2ccc3c(n2)OCC(C)(C)O3)cn1` [Example Q64, N-(5-(2,2-dimethyl-2,3-dihydro-[1,4]dioxino[2,3-b]pyridin-6-yl)-4-((4-methyl-6-(methylsulfonyl)-3-oxo-3,4-dihydropyrazin-2-yl)amino)pyridin-2-yl)acetamide], the figures for the IC50 (in the test on pSTAT5/GM-CSF; in test [1]; in test [2]) were above 10000 nM, 0.034 nM and 4.61 nM, respectively. In the test with pSTAT5/GM-CSF, the “Selectivity fold (TYK2/JAK2)” value is above 2169 fold.
The matching figures for `CC(=O)Nc1cc(Nc2cc(OC(C)C)cc(S(C)(=O)=O)n2)c(-c2ccn(C)n2)cn1` [Example J2, N-(4-((4-isopropoxy-6-(methylsulfonyl)pyridin-2-yl)amino)-5-(1-methyl-1H-pyrazol-3-yl)pyridin-2-yl)acetamide]: above 10000 nM, 0.022 nM, 3 nM and above 3333 fold.
The matching figures for `CCn1ccc(-c2cnc(NC(C)=O)cc2Nc2cc(COC)cc(S(C)(=O)=O)c2)n1` [Example M12, N-(5-(1-ethyl-1H-pyrazol-3-yl)-4-((3-(methoxymethyl)-5-(methylsulfonyl)phenyl)amino)pyridin-2-yl)acetamide]: above 10000 nM, 0.03 nM, 9.12 nM and above 1096 fold.
Turning to `CC(=O)Nc1cc(Nc2cc(C#N)cc(S(C)(=O)=O)n2)c(-c2ccc(C(C)(C)O)cn2)cn1` [Example H14, N-(4′-((4-cyano-6-(methylsulfonyl)pyridin-2-yl)amino)-5-(2-hydroxypropan-2-yl)-[2,3′-bipyridin]-6′-yl)acetamide], the IC50 is above 10000 nM with pSTAT5/GM-CSF, 0.034 nM in test [1] and 0.727 nM in test [2]. Moreover, the “Selectivity fold (TYK2/JAK2)” value in test [2] was above 13755 fold.
Turning to `CC(=O)Nc1cc(Nc2cc(C)cc(S(C)(=O)=O)n2)c(-c2ccn(C3CC3)n2)cn1` [Example M3, N-(5-(1-cyclopropyl-1H-pyrazol-3-yl)-4-((4-methyl-6-(methylsulfonyl)pyridin-2-yl)amino)pyridin-2-yl)acetamide], the IC50 in the test with pSTAT5/GM-CSF is 8350 nM; in test [1], 0.031 nM; in test [2] it was 0.526 nM. Further, in the test with pSTAT5/GM-CSF, the “Selectivity fold (TYK2/JAK2)” value is on record as 15876 fold.
In the case of `COCc1ccc(-c2cnc(NC(C)=O)cc2Nc2cccc(S(C)(=O)=O)c2)nc1` [Example E1, N-(5-(methoxymethyl)-4′-((3-(methylsulfonyl)phenyl)amino)-[2,3′-bipyridin]-6′-yl)acetamide], the IC50 in the test with pSTAT5/GM-CSF was above 10000 nM; in test [1], 0.022 nM; in test [2] it was 4.55 nM. Besides, the “Selectivity fold (TYK2/JAK2)” value in test [2] is reported as above 2197 fold.
